Test results reported in patent US8546377B2 (AbbVie Inc., priority 2009, dated 2013).

Key:
5HT2C receptors = target: T1, 5HT2C receptors (Homo sapiens, UniProt P28335); test: Human 5-HT2C functional assay in 1321N1 cells (intracellular calcium, FLIPR); assay type: cell-based; design: expressed in transfected cells; host or cells: 1321N1 cells; conditions: 1321N1 cells stably transfected, maximum calcium response; read-out: EC50 (μM), 5-HT2c Agonist Activity
T1 sequence (P28335 33-458): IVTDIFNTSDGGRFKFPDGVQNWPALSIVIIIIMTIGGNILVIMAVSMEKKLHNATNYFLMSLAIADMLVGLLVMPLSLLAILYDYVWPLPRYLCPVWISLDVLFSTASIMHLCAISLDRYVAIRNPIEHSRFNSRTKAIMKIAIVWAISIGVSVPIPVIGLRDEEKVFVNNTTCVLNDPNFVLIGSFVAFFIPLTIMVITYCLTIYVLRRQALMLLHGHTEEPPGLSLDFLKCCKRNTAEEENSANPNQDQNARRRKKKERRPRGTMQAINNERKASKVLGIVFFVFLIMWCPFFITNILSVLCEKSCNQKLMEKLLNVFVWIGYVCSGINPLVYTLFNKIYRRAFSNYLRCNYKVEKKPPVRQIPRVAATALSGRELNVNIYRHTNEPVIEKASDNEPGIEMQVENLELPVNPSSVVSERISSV
Summary of the method: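 Intracellular calcium in 1321N1 cells stably transfected with human 5-HT2C, serum-starved overnight, Fluo4 AM-loaded with 1% probenecid. Compounds at 10^−10 to 10^−5 M final, alone or with 10^−9 M serotonin; peak FLIPR response. EC50 from four-parameter logistic fit; Emax as % of serotonin effect.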

5HT2B receptors = target: T2, 5HT2B receptors (Homo sapiens, UniProt P41595); test: Human 5-HT2B functional assay in CHO-K1 cells (calcium flux, FLIPR); assay type: cell-based; conditions: CHO-K1 cells over-expressing 5HT2B, calcium flux; read-out: EC50 (μM), 5-HT2B Agonist Activity
T2 construct: expressed in transfected cells; host or cells: CHO-K1 cells
T2 sequence (P41595 whole entry): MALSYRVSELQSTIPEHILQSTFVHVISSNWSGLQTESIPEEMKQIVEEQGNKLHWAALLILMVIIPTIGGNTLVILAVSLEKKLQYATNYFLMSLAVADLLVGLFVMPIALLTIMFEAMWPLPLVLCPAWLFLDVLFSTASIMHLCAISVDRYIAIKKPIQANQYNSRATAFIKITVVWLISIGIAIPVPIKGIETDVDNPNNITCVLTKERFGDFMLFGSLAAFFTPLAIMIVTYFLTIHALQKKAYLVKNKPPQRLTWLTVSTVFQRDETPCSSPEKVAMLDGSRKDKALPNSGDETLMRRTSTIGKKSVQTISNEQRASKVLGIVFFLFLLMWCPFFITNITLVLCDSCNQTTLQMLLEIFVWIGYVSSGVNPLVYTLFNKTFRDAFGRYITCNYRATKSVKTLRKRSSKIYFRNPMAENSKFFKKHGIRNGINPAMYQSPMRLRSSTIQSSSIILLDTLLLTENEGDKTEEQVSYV
Summary of the method: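 EC50 came from a 4-parameter logistic fit, with Emax expressed relative to serotonin, of intracellular Ca2+ rises read on FLIPR at 480/530 nm, 25° C, over 3 min. Compounds ran from 10 μM in six 1:10 steps (0.2% DMSO) on serum-starved CHO-K1 transfectants pre-loaded 60 min with Ca4 dye and probenecid.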

- EC50 (5HT2C receptors): > 10 µM
- EC50 (5HT2B receptors): > 10 µM
SMILES: O=C1NCC2CNCCN2c2ccc(NS(=O)(=O)c3ccccc3)cc21 (centres unmarked) [Example 48, N-(7-oxo-1,2,3,4,4a,5,6,7-octahydropyrazino[1,2-a][1,4]benzodiazepin-9-yl)benzenesulfonamide]
